Laboratory results reported in US8969332B2, “Aryloxy dihalopropenyl ether compounds and uses thereof” (Sinochem Corporation, priority 2011, dated 2015).
Like-named read-outs stand apart in the source and are kept apart here.

Columns and labels:
diamond back moth [1] = test: Insecticidal activity against diamond back moth in greenhouse (airbrush spraying of cabbage leaf discs); type: in vivo; conditions: Plutella xylostella, foliar, 72 h, read-out: Mortality of diamond back moth (%)
Description: (§1) Compounds were dissolved in mixed solvent (acetone:methanol=1:1), and diluted to required concentration with water containing 0.1% of tweed 80.
(§2) The method of spraying by airbrush: The cabbage leaves were made into plates of 2 cm diameter by use of punch. A test solution (0.5 ml) was sprayed by airbrush at the pressure of 0.7 kg/cm^2 to both sides of every plate. 10 Second instar larvae were put into the petri-dishes after the leaf disc air-dried and 3 replicates were set for each treatment. Then the insects were maintained in observation room (25° C., 60˜70% R.H.), Scores were conducted and mortalities were calculated after 72 h.

armyworm = test: Insecticidal activity against armyworm in greenhouse (airbrush spraying of corn leaf discs); type: in vivo; conditions: 72 h; for control of the armyworm: 600 mg/L; for Mortality of armyworm (%) / mortality at 10 µg/mL / mortality at 100 µg/mL: parallel determination; for mortality at 10 µg/mL / mortality at 100 µg/mL: Mythimna separata, foliar
Description: as §1
as §2, with “corn” for “cabbage”, “Petri-dishes” for “petri-dishes”, “thr” for “for”, “R.H.).” for “R.H.),”

Heliothis virescens = conditions: 100 ppm; cited from earlier work
Prodenia litura = conditions: 500 ppm; cited from earlier work
diamond back moth [2] = test: Field trial against diamond back moth on cabbage; type: in vivo, Plutella xylostella; conditions: 105 g a.i./hm^2, 10% EC
Description: (§3) Calculation Method: Decrease rate of insects (%)=(the number of insects before application−the number of insects after application) the number of insects before application×100 Control efficacy (%)=(decrease rate of insects in treated area decrease rate of insects in blank comparative area)/(100−decrease rate of insects in blank comparative area)×100
The trial was carried out in the test filed of Shenyang Research Institute of Chemical industry Ltd. The trial crop is cabbage (Variety: Zhonggan NO 8.). The dosage of the compound 1 are 75, 105, 150 g a.i./hm^2 and comparative agent pyridalyl is 105 g a.i./hm^2. The agent was applied once on 13 Jun. 2011. The application tool is Shandongweishi WS-16P type backpack manual sprayer. Evenly spraying to whole cabbage which is in rosette stage was conducted. Diamond back moth is originated at the peak time. The plot area is 10 m^2, 3 replicates and randomized block arrangement were set. The amount of spray liquid is 750 L/hm^2. It was sunny with the highest temperature of 29° C., and the lowest of 17° C. on the day of the application of the spray. The methods of investigation and calculation are the same as Example 13.

[3] = tested on: cabbage butterfly (Pierisrapae Linne); test: Field trial against cabbage butterfly; type: in vivo; conditions: 105 g a.i./hm^2, 10% EC
Description: as §3
The trial was carried out in a farmer's vegetable field in Xiangcheng District Suzhou City. The variety of the cabbage is Xinxia 50. The dosage of the compound 1 are 75, 105, 150 g a.i./hm^2 and the comparative agent pyridalyl is 105 g a.i./hm^2. The agent was applied on 26 May 2011. The application tool is Singaporean Linong HD-400 type backpack spray. Evenly spraying to whole cabbage which is at vegetative growth phase was conducted, Cabbage butterfly is at a peak time of 1-3 instars of larvae. The plot area is 15 m^2, 4 replicates and randomized block arrangement were set. The amount of spray liquid is 750 L/hm^2. It was from sunny to cloudy with the highest temperature of 22.6° C., and the lowest of 17.8° C. on the day of the application of the spray. Chosen 10 plants from each plot and scored the larvae at different instars at fixing time. The base number was investigated before treatment. The number of living larvae was counted after 1 day, 4 days, 7 days and 12 days respectively after application and control efficacy was calculated.
Calculation method: the same as Example 13.

beet armyworm [4] = test: Field trial against beet armyworm on cabbage; type: in vivo, Laphygma exigua; conditions: 105 g a.i./hm^2, 10% EC
Description: The trial was carried out in rain shelter area of experimental field of Wuhan vegetable research institute, the test crop is cabbage (variety: Jingfeng NO. 1). The dosage of the invention compound 1 (Example 11, 10% EC, same as below) are 75, 105, 150 g a.i./hm^2. and the comparative agent pyridalyl (10% EC, commercially available, same as below) is 105 g a.i./hm^2. The agent was applied on 9 Oct. 2011. The application tool is Linong 16HD-400 type backpack spray. Evenly spraying to whole cabbage which is in rosette stage was conducted. Beet armyworm is mainly larvae. The plot area is 25 m^2 and 4 replicates and randomized block arrangement were set. The amount of spray liquid is 750 L/hm^2. It was sunny and there was no wind, with the highest temperature of 28° C. and the lowest of 15° C. on the day of the application. Chosen 10 plants from each plot and scored the larvae at different instars at fixing time. The base number was investigated before treatment. The number of living larvae was counted after 1 day, 3 days, 7 days and 14 days respectively after application and control efficacy was calculated.
as §3

beet armyworm [5] = test: Insecticidal activity against beet armyworm (24 well-plate artificial diet emulsion method); type: in vivo; conditions: Spodoptera exigua, 72 h, read-out: Mortality of beet armyworm (%)
Description: as §1
24 well-plate artificial diet emulsion method: artificial food was added to each well of the 24 well-plate, after the artificial food was cooled, the prepared solution were added into the 24 well-plate according to the experimental design by order of chemical concentrations from low to high, by gently shaking the even emulsion film can be formed on the surface of the diet. 24 neat and healthy larvae were put into the 24 well-plate (one larvae each well) after the film was air-dried and 3 replicates were set for each treatment. Then the insects were maintained in observation room (25° C., 60˜70% R.H.). Scores were conducted and mortalities were calculated after 72 h.

housefly = test: Insecticidal activity against housefly (diet incorporation test); type: in vivo; conditions: Musca domestica, 72 h, read-out: Mortality of housefly (%)
Description: Diet Incorporation Tests: the test compound was dissolved with 90% acetone to obtain the mother liquor after weigh accurately with an electronic balance. The required concentration solution was got by diluting to the mother liquor with a certain concentration milk powder solution according to the designed doses in the experiment. Then, the diluted concentration solution was evenly put into the petri dishes with diameter of 6 cm inside which filter paper was placed by using a transferring-liquid gun ([…], solution each petri dish). Finally the 3rd instars of larvae were put into petri dishes with 10 each petri dish, and 3 replicates were set for each treatment. Then the insects were maintained in observation room (25° C., 60˜70% R.H.). Scores were conducted and mortalities were calculated after 72 h.

[6] = 6.25 mg/L, parallel determination
[7] = 25 mg/L, parallel determination
[8] = 50 mg/L, parallel determination

## FC(F)(F)c1cnc(Oc2ccc(OCCCOc3c(Cl)cc(OCC=C(Cl)Cl)cc3Cl)cc2)c(Cl)c1 [Compound 2]
Diamond back moth [1]; [6]
  mortality at 6.25 µg/mL: 75%
Diamond back moth [1]; [7]
  mortality at 25 µg/mL: 100%
Diamond back moth [1]; [8]
  mortality at 50 µg/mL: 100%

## Fc1cc(Cl)cnc1Oc1ccc(OCCCOc2c(Cl)cc(OCC=C(Cl)Cl)cc2Cl)cc1 [Compound 3]
armyworm
  control of the armyworm: 100%

## ClC(Cl)=CCOc1cc(Cl)c(OCCCOc2ccc(Oc3nc(Cl)c(Cl)cc3Cl)cc2)c(Cl)c1 [Compound 11]
armyworm
  control of the armyworm: 100%

## ClC(Cl)=CCOc1cc(Cl)c(OCCCOc2ccc(Oc3ccccc3)cc2)c(Cl)c1 [Compound 38]
armyworm
  control of the armyworm: 100%

## CC(C)(C)n1ncc(Oc2ccc(OCCCOc3c(Cl)cc(OCC=C(Cl)Cl)cc3Cl)cc2)c(Cl)c1=O [Compound 57]
armyworm
  control of the armyworm: 100%

## Fc1cccc(Cl)c1COc1ccc(OCCCOc2c(Cl)cc(OCC=C(Cl)Cl)cc2Cl)cc1 [Compound 72]
armyworm
  control of the armyworm: 100%

## ClC(Cl)=CCOc1cc(Cl)c(OCCCOc2ccc(OCc3cnc(Cl)s3)cc2)c(Cl)c1 [Compound 80]
armyworm
  control of the armyworm: 100%

## FC(F)(F)c1ccc(Oc2ccc(OCCCOc3ccc(OCC=C(Cl)Cl)cc3Cl)cc2)nc1 [Compound 83]
armyworm
  control of the armyworm: 100%

## FC(F)(F)c1cnc(Oc2ccc(OCCCOc3ccc(OCC=C(Cl)Cl)cc3Cl)cc2)c(Cl)c1 [Compound 84]
armyworm
  control of the armyworm: 100%

## FC(F)(F)c1ccc(Oc2ccc(OCCCOc3c(Cl)cc(OCC=C(Cl)Cl)c(Cl)c3Cl)cc2)nc1 [Compound 117]
armyworm; 10 mg/L
  Mortality of armyworm (%): 100%
armyworm; 100 mg/L
  Mortality of armyworm (%): 100%
armyworm
  control of the armyworm: 100%

## FC(F)(F)c1cnc(Oc2ccc(OCCCOc3c(Cl)cc(OCC=C(Cl)Cl)c(Cl)c3Cl)cc2)c(Cl)c1 [Compound 118]
armyworm
  control of the armyworm: 100%

## ClC(Cl)=CCOc1cc(Cl)c(OCCCOc2ccc(Oc3nc4ccc(Cl)cc4o3)cc2)c(Cl)c1 [Compound 219]
armyworm
  control of the armyworm: 100%
armyworm; 10 mg/L
  mortality at 10 µg/mL: 70%
armyworm; 100 mg/L
  mortality at 100 µg/mL: 100%

## FC(F)(F)c1cnc(Oc2ccc(OCCCOc3c(Cl)cc(OCC=C(Cl)Cl)cc3Cl)cc2Cl)c(Cl)c1 [Compound D-1, reference compound]
Heliothis virescens
  control on Heliothis virescens: above 80%
Prodenia litura
  control against Prodenia litura: above 80%
armyworm; 10 mg/L
  mortality at 10 µg/mL: 30%
armyworm; 100 mg/L
  mortality at 100 µg/mL: 90%
Diamond back moth [1]; [6]
  mortality at 6.25 µg/mL: 0%
Diamond back moth [1]; [7]
  mortality at 25 µg/mL: 30%
Diamond back moth [1]; [8]
  mortality at 50 µg/mL: 80%

## FC(F)(F)c1ccc(OCCCOc2c(Cl)cc(OCC=C(Cl)Cl)cc2Cl)nc1 [Compound D-2, pyridalyl, reference compound]
Diamond back moth [2]; 1 day after treatment
  Control efficacy (%): 95.1%
Diamond back moth [2]; 3 days after treatment
  Control efficacy (%): 97.0%
Diamond back moth [2]; 7 days after treatment
  Control efficacy (%): 94.9%
[3]; 1 day after treatment
  Control efficiency (%): 49.7%
[3]; 4 day after treatment
  Control efficiency (%): 84.3%
[3]; 7 day after treatment
  Control efficiency (%): 88.5%
[3]; 12 days after treatment
  Control efficiency (%): 75.8%
Diamond back moth [1]
  mortality at 6.25 µg/mL: 50%
  mortality at 25 µg/mL: 75%
  mortality at 50 µg/mL: 90%
Beet armyworm [4]; 1 day after treatment
  Control efficiency (%): 70.76%
Beet armyworm [4]; 3 days after treatment
  Control efficiency (%): 83.34%
Beet armyworm [4]; 7 days after treatment
  Control efficiency (%): 78.33%
Beet armyworm [4]; 14 days after treatment
  Control efficiency (%): 61.21%
Beet armyworm [5]
  mortality at 2.5 µg/mL: 16.7%
  mortality at 10 µg/mL: 100%
housefly
  mortality at 10 µg/mL: 0%
  mortality at 20 µg/mL: 25%
